Experimental data taken from ChEMBL document CHEMBL1159329, “Microbial transformations of isosteviol” (2002).

System: Rattus norvegicus
Assay: Antihypertensive activity in deoxy-corticosterone acetate-induced Sprague-Dawley rat assessed as reduction of blood pressure at 4.8 mg/kg, iv
Format: functional

SMILES | Activity [mmHg]
C[C@@]12CC[C@]3(O)[C@@](CC[C@@H]4[C@](C)(C(=O)O)CCC[C@]43C)(CC1=O)C2 | 7
C[C@@]12CC[C@@H]3[C@@](CC[C@H]4[C@@]3(C)CCC[C@@]4(C)C(=O)O)(CC1=O)C2 [ISOSTEVIOL] | 12
